The compounds below were run against T1, CFTR (F508del/MF-HBE cells) (Homo sapiens, UniProt P13569, DEL508-508) (assay: Ussing chamber assay of CFTR-mediated short-circuit currents (potentiator identification)). Conditions: CFTR-mediated Isc, 18-24 h incubation at 37° C. with 10 μM (14S)-8-[3-(2-{dispiro[2.0.2.1]heptan-7-yl}ethoxy)-1H-pyrazol-1-yl]-... corrector, 20% human serum.
T1 construct: human bronchial epithelial (HBE) cells derived from CF subjects heterozygous for F508del and a minimal function CFTR mutation (F508del/MF-HBE); endogenous in cells; host or cells: primary human bronchial epithelial (HBE) cells from CF subjects, genotype F508del/minimal function
T1 sequence (P13569 with tags, fused parts or gaps DEL508-508): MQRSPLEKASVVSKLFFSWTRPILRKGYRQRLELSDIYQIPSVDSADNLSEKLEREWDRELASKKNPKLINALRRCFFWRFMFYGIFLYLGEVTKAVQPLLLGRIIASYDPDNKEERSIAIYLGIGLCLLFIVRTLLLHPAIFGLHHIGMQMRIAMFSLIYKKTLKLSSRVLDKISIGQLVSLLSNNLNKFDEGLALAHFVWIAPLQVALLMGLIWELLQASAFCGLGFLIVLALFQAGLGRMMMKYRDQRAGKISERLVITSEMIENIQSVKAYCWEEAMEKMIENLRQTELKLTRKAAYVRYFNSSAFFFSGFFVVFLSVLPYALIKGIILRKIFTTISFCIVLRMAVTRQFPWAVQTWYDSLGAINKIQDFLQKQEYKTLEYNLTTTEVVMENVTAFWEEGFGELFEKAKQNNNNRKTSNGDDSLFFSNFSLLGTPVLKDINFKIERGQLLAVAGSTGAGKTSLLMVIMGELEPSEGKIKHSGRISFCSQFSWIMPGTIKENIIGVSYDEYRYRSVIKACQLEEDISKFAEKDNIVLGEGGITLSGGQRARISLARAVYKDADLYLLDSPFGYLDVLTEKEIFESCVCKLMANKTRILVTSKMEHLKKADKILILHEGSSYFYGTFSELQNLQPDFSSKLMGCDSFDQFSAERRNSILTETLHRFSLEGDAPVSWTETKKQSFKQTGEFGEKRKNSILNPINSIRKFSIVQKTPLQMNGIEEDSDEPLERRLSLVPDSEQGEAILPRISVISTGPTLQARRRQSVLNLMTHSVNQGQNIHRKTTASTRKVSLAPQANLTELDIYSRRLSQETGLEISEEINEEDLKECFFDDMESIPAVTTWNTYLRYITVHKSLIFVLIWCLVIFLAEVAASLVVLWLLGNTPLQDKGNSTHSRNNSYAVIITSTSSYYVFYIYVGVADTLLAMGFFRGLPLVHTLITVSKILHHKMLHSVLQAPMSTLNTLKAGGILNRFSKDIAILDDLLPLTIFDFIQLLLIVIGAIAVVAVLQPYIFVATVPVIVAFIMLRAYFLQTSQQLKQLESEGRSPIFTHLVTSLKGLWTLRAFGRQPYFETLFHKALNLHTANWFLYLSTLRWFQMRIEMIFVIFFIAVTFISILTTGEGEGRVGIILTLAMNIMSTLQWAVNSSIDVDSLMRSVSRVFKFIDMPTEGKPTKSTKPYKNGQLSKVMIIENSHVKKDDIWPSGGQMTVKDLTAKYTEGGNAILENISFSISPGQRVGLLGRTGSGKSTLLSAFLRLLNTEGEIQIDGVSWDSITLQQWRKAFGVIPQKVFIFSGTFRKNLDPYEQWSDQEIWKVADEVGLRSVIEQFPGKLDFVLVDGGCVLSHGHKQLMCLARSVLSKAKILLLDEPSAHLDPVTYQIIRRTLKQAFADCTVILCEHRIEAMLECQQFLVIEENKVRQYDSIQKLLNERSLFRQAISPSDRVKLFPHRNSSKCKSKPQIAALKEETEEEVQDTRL
Type: cell-based
Protocol: Ussing Chamber Assay of CFTR-Mediated Short-Circuit Currents
Ussing chamber experiments were performed using human bronchial epithelial (HBE) cells derived from CF subjects heterozygous for F508del and a minimal function CFTR mutation (F508del/MF-HBE) and cultured as previously described (Neuberger T, Burton B, Clark H, Van Goor F Methods Mol Biol 2011:741:39-54). After four days the apical media was removed, and the cells were grown at an air liquid interface for >14 days prior to use.
To isolate the CFTR-mediated short-circuit (Isc) current, F508del/MF-HBE grown on Costar® Snapwell™ cell culture inserts were mounted in an Ussing chamber and the transepithelial ISC was measured under voltage-clamp recording conditions (Vhold=0 mV) at 37° C. The basolateral solution contained (in mM) 145 NaCl, 0.83 K2HPO4, 3.3 KH2PO4, 1.2 MgCl2, 1.2 CaCl2, 10 Glucose, 10 HEPES (pH adjusted to 7.4 with NaOH) and the apical solution contained (in mM) 145 NaGluconate, 1.2 MgCl2, 1.2 CaCl2, 10 glucose, 10 HEPES (pH adjusted to 7.4 with NaOH) and 30 μM amiloride to block the epithelial sodium channel. Forskolin (20 μM) was added to the apical surface to activate CFTR, followed by apical addition of a CFTR inhibitor cocktail consisting of BPO, GlyH-101 and CFTR inhibitor 172 (each at 20 μM final assay concentration) to specifically isolate CFTR currents. The CFTR-mediated Isc (μA/cm^2) for each condition was determined from the peak forskolin response to the steady-state current following inhibition.
Identification of Potentiator Compounds
The activity of the CFTR potentiator compounds on the CFTR-mediated Isc was determined in Ussing chamber studies as described above. The F508del/MF-HBE cell cultures were incubated with the potentiator compounds at a range of concentrations in combination with 10 μM (14S)-8-[3-(2-{dispiro[2.0.2.1]heptan-7-yl}ethoxy)-1H-pyrazol-1-yl]-12,12-dimethyl-2λ^6-thia-3,9,11,18,23-pentaazatetracyclo[17.3.1.111,14.05,10]tetracosa-1(22),5,7,9,19(23),20-hexaene-2,2,4-trione for 18-24 hours at 37° C. and in the presence of 20% human serum. The concentration of potentiator compounds and (14S)-8-[3-(2-{dispiro[2.0.2.1]heptan-7-yl}ethoxy)-1H-pyrazol-1-yl]-12,12-dimethyl-2λ^6-thia-3,9,11,18,23-pentaazatetracyclo[17.3.1.111,14.05,10]tetracosa-1(22),5,7,9,19(23),20-hexaene-2,2,4-trione used during the 18-24 hours incubations was kept constant throughout the Ussing chamber measurement of the CFTR-mediated Isc to ensure compounds were present throughout the entire experiment. The efficacy and potency of the putative F508del potentiators was compared to that of the known Vertex potentiator, ivacaftor (N-[2,4-bis(1,1-dimethylethyl)-5-hydroxyphenyl]-1,4-dihydro-4-oxoquinoline-3-carboxamide).
For `Nc1cc(C(F)(F)F)c2nc1-c1nnc(o1)[C@@](O)(C(F)(F)F)CCCCCC(Cc1ccc(F)cc1)O2` (single isomer, unassigned) [Compound 49], the EC50 was < 500 nM.
In the case of `C[C@H]1CCCCC[C@@](O)(C(F)(F)F)C2=NN=C(O2)c2nc(c(C(F)(F)F)cc2N)O1` [Compound 13, (6S,12S)-17-amino-12-methyl-6,15-bis(trifluoromethyl)-13,19-dioxa-3,4,18-triazatricyclo[12.3.1.12,5]nonadeca-1(18),2,4,14,16-pentaen-6-ol], the EC50 is reported as < 500 nM.
With `C[C@@H]1CCCc2ccc(F)c(c2)C(O)(C(F)(F)F)C2=NN=C(O2)c2nc(c(C(F)(F)F)cc2N)O1` (stereo partly drawn) [Compound 18, (15R)-20-amino-8-fluoro-15-methyl-6,18-bis(trifluoromethyl)-16,23-dioxa-3,4,21-triazatetracyclo[15.3.1.12,5.17,11]tricosa-1(21),2,4,7(22),8,10,17,19-octaen-6-ol] the EC50 was < 500 nM.
In the case of `C[C@@H]1CCCC(O)C[C@](O)(C(F)(F)F)C2=NN=C(O2)c2nc(c(C(F)(F)F)cc2N)O1` (single isomer, unassigned) [Compound 53], the EC50 is reported as < 500 nM.
In the case of `C[C@H]1CCCCC[C@](O)(C(F)(F)F)C2=NN=C(O2)c2nc(c(C(F)(F)F)cc2N)O1` [Compound 14, (6R,12S)-17-amino-12-methyl-6,15-bis(trifluoromethyl)-13,19-dioxa-3,4,18-triazatricyclo[12.3.1.12,5]nonadeca-1(18),2,4,14,16-pentaen-6-ol], the EC50 is reported as < 500 nM.
`CC(C)C1CCCCC[C@](O)(C(F)(F)F)C2=NN=C(O2)c2nc(c(C(F)(F)F)cc2N)O1` (single isomer, unassigned) [Compound 35] was tested, and the EC50 was < 500 nM.
For `Nc1cc(C(F)(F)F)c2nc1-c1nnc(o1)C(O)(C(F)(F)F)CCCCc1cc(F)cc(c1)O2` (single isomer, unassigned) [Compound 31, 20-amino-13-fluoro-6,18-bis(trifluoromethyl)-16,23-dioxa-3,4,21-triazatetracyclo[15.3.1.12,5.111,15]tricosa-1(21),2,4,11(22),12,14,17,19-octaen-6-ol], the EC50 was < 500 nM.
For `C[C@@H]1CCC(=O)CC[C@](O)(C(F)(F)F)C2=NN=C(O2)c2nc(c(C(F)(F)F)cc2N)O1` [Compound 26, (6R,12R)-17-amino-6-hydroxy-12-methyl-6,15-bis(trifluoromethyl)-13,19-dioxa-3,4,18-triazatricyclo[12.3.1.12,5]nonadeca-1(18),2,4,14,16-pentaen-9-one], the EC50 was < 500 nM.
With `Nc1cc(C(F)(F)F)c2nc1-c1nnc(o1)C(O)(C(F)(F)F)CCCCc1cccc(c1)O2` (single isomer, unassigned) [Compound 27, 20-amino-6,18-bis(trifluoromethyl)-16,23-dioxa-3,4,21-triazatetracyclo[15.3.1.12,5.111,15]tricosa-1(21),2,4,11(22),12,14,17,19-octaen-6-ol] the EC50 was < 500 nM.
For `CC(C)(C)c1cccc(CC2CCCCC[C@](O)(C(F)(F)F)C3=NN=C(O3)c3nc(c(C(F)(F)F)cc3N)O2)c1` (single isomer, unassigned) [Compound 51], the EC50 was < 500 nM.
With `Nc1cc(C(F)(F)F)c2nc1-c1nnc(o1)[C@@](O)(C(F)(F)F)CCCCCC[S@@+]2[O-]` [Compound 20, (6R,13R)-17-amino-13-oxido-6,15-bis(trifluoromethyl)-19-oxa-13-thionia-3,4,18-triazatricyclo[12.3.1.12,5]nonadeca-1(18),2,4,14,16-pentaen-6-ol] the EC50 was 500 to 1000 nM.
For `CC1(C)CCCC[C@](O)(C(F)(F)F)C2=NN=C(O2)c2nc(c(C(F)(F)F)cc2N)OC1` [Compound 61, (6R)-17-amino-11,11-dimethyl-6,15-bis(trifluoromethyl)-13,19-dioxa-3,4,18-triazatricyclo[12.3.1.12,5]nonadeca-1(18),2,4,14,16-pentaen-6-ol], the EC50 was < 500 nM.
With `CC(C)(C)c1cccc(CC2CCCCC[C@](O)(C(F)(F)F)C3=NN=C(O3)c3nc(c(C(F)(F)F)cc3N)O2)c1` (single isomer, unassigned) [Compound 52] the EC50 was < 500 nM.
`[2H]C1CC[C@@H](C)Oc2nc(c(N)cc2C(F)(F)F)C2=NN=C(O2)[C@@](O)(C(F)(F)F)CC1[2H]` (stereo partly drawn) [Compound 44, (6R,12R)-17-amino-8,9-dideuterio-12-methyl-6,15-bis(trifluoromethyl)-13,19-dioxa-3,4,18-triazatricyclo[12.3.1.12,5]nonadeca-1(17),2,4,14(18),15-pentaen-6-ol] was tested, and the EC50 was < 500 nM.
With `CC1CCC(O)(C(F)(F)F)C2=NN=C(O2)c2nc(c(C(F)(F)F)cc2N)Oc2cccc1c2` (single isomer, unassigned) [Compound 30, 19-amino-9-methyl-6,17-bis(trifluoromethyl)-15,22-dioxa-3,4,20-triazatetracyclo[14.3.1.12,5.110,14]docosa-1(20),2,4,10(21),11,13,16,18-octaen-6-ol] the EC50 was < 500 nM.
`Nc1cc(C(F)(F)F)c2nc1-c1nnc(o1)[C@@](O)(C(F)(F)F)CCCCCC[S@+]2[O-]` [Compound 19, (6R,13S)-17-Amino-13-oxido-6,15-bis(trifluoromethyl)-19-oxa-13-thionia-3,4,18-triazatricyclo[12.3.1.12,5]nonadeca-1(18),2,4,14,16-pentaen-6-ol] was tested, and the EC50 was < 500 nM.
`Nc1cc(C(F)(F)F)c2nc1-c1nnc(o1)C(O)(C(F)(F)F)CCCCCCO2` (racemic) [Compound 4, 17-Amino-6,15-bis(trifluoromethyl)-13,19-dioxa-3,4,18-triazatricyclo[12.3.1.12,5]nonadeca-1(18),2,4,14,16-pentaen-6-ol] was tested, and the EC50 was < 500 nM.
For `Nc1cc(C(F)(F)F)c2nc1-c1nnc(o1)[C@](O)(C(F)(F)F)CCCCCCO2` [Compound 6, (6S)-17-amino-6,15-bis(trifluoromethyl)-13,19-dioxa-3,4,18-triazatricyclo[12.3.1.12,5]nonadeca-1(18),2,4,14,16-pentaen-6-ol], the EC50 was > 1000 nM.
In the case of `C[C@@H]1CCC(O)CC[C@](O)(C(F)(F)F)C2=NN=C(O2)c2nc(c(C(F)(F)F)cc2N)O1` (single isomer, unassigned) [Compound 42], the EC50 is reported as < 500 nM.
With `C[C@H]1Oc2nc(c(N)cc2C(F)(F)F)C2=NN=C(O2)[C@@](O)(C(F)(F)F)CCCCC1O` (single isomer, unassigned) [Compound 41] the EC50 was < 500 nM.
For `Nc1cc(C(F)(F)F)c2nc1-c1nnc(o1)[C@@](O)(C(F)(F)F)CCCCC[S+]2[O-]` (single isomer, unassigned) [Compound 23], the EC50 was > 1000 nM.
In the case of `CC1CCC(O)(C(F)(F)F)C2=NN=C(O2)c2nc(c(C(F)(F)F)cc2N)Oc2cccc1c2` (stereo not drawn) [Compound 29, 19-amino-9-methyl-6,17-bis(trifluoromethyl)-15,22-dioxa-3,4,20-triazatetracyclo[14.3.1.12,5.110,14]docosa-1(20),2,4,10(21),11,13,16,18-octaen-6-ol], the EC50 is reported as < 500 nM.
In the case of `Nc1cc(C(F)(F)F)c2nc1-c1nnc(o1)[C@@](O)(C(F)(F)F)CCCCC[C@@H](CO)O2` [Compound 37, (6R,12S)-17-amino-12-(hydroxymethyl)-6,15-bis(trifluoromethyl)-13,19-dioxa-3,4,18-triazatricyclo[12.3.1.12,5]nonadeca-1(18),2,4,14,16-pentaen-6-ol], the EC50 is reported as < 500 nM.
For `C[C@@H]1CCCCC(O)C(O)(C(F)(F)F)C2=NN=C(O2)c2nc(c(C(F)(F)F)cc2N)O1` (single isomer, unassigned) [Compound 56], the EC50 was > 1000 nM.
